# Measured values as given in ChEMBL document CHEMBL1201862, “PubChem BioAssay data set” (2004).
#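 Five compound concentrations were applied to cells in 96-well plates for 48 hours; endpoints were derived by simple linear interpolation of the resulting dose-response curve. At the GI50, growth is halved.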 Activity calls are given as the source filed them. No stated cut-off is given here; in the data, active = GI50 up to about 1.1 µM and inactive = higher.
# Assays:
# Experiment in all cases: DTP human tumour cell line panel, 48 h
# [1] = system: SK-OV-3
# [2] = system: SR
# [3] = system: RPMI-8226
# [4] = system: SF-539
# [5] = system: MDA-N
# [6] = system: SK-MEL-2
# [7] = system: MOLT-4
# [8] = system: NCI-H460
# [9] = system: HCC 2998
# [10] = system: DU-145
# [11] = system: MDA-MB-231
# [12] = system: SK-MEL-28
# [13] = system: OVCAR-3
# [14] = system: MCF7
# [15] = system: OVCAR-5
# [16] = system: HCT-15
# [17] = system: T47D
# [18] = system: SNB-75
# [19] = system: SNB-19
# [20] = system: SF-295
# [21] = system: NCI-H23
# [22] = system: SK-MEL-5
# [23] = system: UACC-62
# [24] = system: OVCAR-8
# [25] = system: OVCAR-4
# [26] = system: CCRF-CEM
# [27] = system: U-251
# [28] = system: HT-29
# [29] = system: NCI/ADR-RES
# [30] = system: NCI-H522
# [31] = system: A498
# [32] = system: Malme-3M
# [33] = system: HCT-116
# [34] = system: K562
# [35] = system: COLO 205
# [36] = system: TK-10
# [37] = system: HOP-62
# [38] = system: KM12
# [39] = system: PC-3
# [40] = system: CAKI-1
# [41] = system: SN12C
# [42] = system: MDA-MB-435
# [43] = system: M14
# [44] = system: UACC-257
# [45] = system: RXF 393
# [46] = system: EKVX
# [47] = system: SF-268
# [48] = system: A549
# [49] = system: LOX IMVI
# [50] = system: HL-60
# [51] = system: NCI-H226
# [52] = system: HOP-92
# [53] = system: ACHN
# [54] = system: IGROV-1
# [55] = system: BT-549
# [56] = system: Hs-578T
# [57] = system: 786-0
# [58] = system: SW-620
# [59] = system: UO-31
compound,measurement,setting,value
O=[N+]([O-])c1cc(F)ccc1Sc1ccccc1,GI50,[1],> 10 µM (inactive)
same,GI50,[2],> 10 µM (inactive)
same,GI50,[3],> 10 µM (inactive)
same,GI50,[4],> 10 µM (inactive)
same,GI50,[5],> 10 µM (inactive)
same,GI50,[6],> 10 µM (inactive)
same,GI50,[7],> 10 µM (inactive)
same,GI50,[8],> 10 µM (inactive)
same,GI50,[9],> 10 µM (inactive)
same,GI50,[10],> 10 µM (inactive)
same,GI50,[11],> 10 µM (inactive)
same,GI50,[12],> 10 µM (inactive)
same,GI50,[13],> 10 µM (inactive)
same,GI50,[14],> 10 µM (inactive)
same,GI50,[15],> 10 µM (inactive)
same,GI50,[16],> 10 µM
same,GI50,[17],> 10 µM (inactive)
same,GI50,[18],> 10 µM (inactive)
same,GI50,[19],> 10 µM (inactive)
same,GI50,[20],> 10 µM (inactive)
same,GI50,[21],> 10 µM (inactive)
same,GI50,[22],> 10 µM (inactive)
same,GI50,[23],> 10 µM (inactive)
same,GI50,[24],> 10 µM (inactive)
same,GI50,[25],> 10 µM (inactive)
same,GI50,[26],> 10 µM (inactive)
same,GI50,[27],> 10 µM (inactive)
same,GI50,[28],> 10 µM (inactive)
same,GI50,[29],> 10 µM (inactive)
same,GI50,[30],> 10 µM (inactive)
same,GI50,[31],> 10 µM (inactive)
same,GI50,[32],> 10 µM (inactive)
same,GI50,[33],> 10 µM (inactive)
same,GI50,[34],> 10 µM (inactive)
same,GI50,[35],> 10 µM (inactive)
same,GI50,[36],> 10 µM (inactive)
same,GI50,[37],> 10 µM (inactive)
same,GI50,[38],> 10 µM (inactive)
same,GI50,[39],> 10 µM (inactive)
same,GI50,[40],> 10 µM (inactive)
same,GI50,[41],> 10 µM (inactive)
same,GI50,[42],> 10 µM (inactive)
same,GI50,[43],> 10 µM (inactive)
same,GI50,[44],> 10 µM (inactive)
same,GI50,[45],> 10 µM (inactive)
same,GI50,[46],> 10 µM (inactive)
same,GI50,[47],> 10 µM (inactive)
same,GI50,[48],> 10 µM (inactive)
same,GI50,[49],> 10 µM (inactive)
same,GI50,[50],> 10 µM (inactive)
same,GI50,[51],> 10 µM (inactive)
same,GI50,[52],> 10 µM (inactive)
same,GI50,[53],> 10 µM (inactive)
same,GI50,[54],> 10 µM (inactive)
same,GI50,[55],> 10 µM (inactive)
same,GI50,[56],> 10 µM (inactive)
same,GI50,[57],> 10 µM (inactive)
same,GI50,[58],> 10 µM (inactive)
C[C@]12CC[C@H](O)C[C@@H]1CC[C@@H]1[C@@H]2CC[C@]2(C)[C@@H](c3cc(C(F)(F)F)[nH]n3)CC[C@@H]12,GI50,[1],13.8 µM (inactive)
same,GI50,[2],3.87 µM (inactive)
same,GI50,[3],3.96 µM (inactive)
same,GI50,[4],7.36 µM (inactive)
same,GI50,[5],10.8 µM (inactive)
same,GI50,[6],16.2 µM (inactive)
same,GI50,[7],3.95 µM (inactive)
same,GI50,[8],3.18 µM (inactive)
same,GI50,[9],15 µM (inactive)
same,GI50,[10],10.9 µM (inactive)
same,GI50,[11],6.67 µM (inactive)
same,GI50,[12],13.1 µM (inactive)
same,GI50,[13],10.1 µM (inactive)
same,GI50,[14],5.75 µM (inactive)
same,GI50,[15],10.5 µM (inactive)
same,GI50,[16],6.32 µM
same,GI50,[17],5.26 µM (inactive)
same,GI50,[18],11.6 µM (inactive)
same,GI50,[19],9.68 µM (inactive)
same,GI50,[20],4.23 µM (inactive)
same,GI50,[21],7.11 µM (inactive)
same,GI50,[22],6.82 µM (inactive)
same,GI50,[23],14.1 µM (inactive)
same,GI50,[24],5.35 µM (inactive)
same,GI50,[25],6.64 µM (inactive)
same,GI50,[26],0.957 µM (active)
same,GI50,[27],7.01 µM (inactive)
same,GI50,[28],4.27 µM (inactive)
same,GI50,[29],6.32 µM (inactive)
same,GI50,[30],> 22.5 µM (inactive)
same,GI50,[31],8.59 µM (inactive)
same,GI50,[32],> 37.3 µM (inactive)
same,GI50,[33],3.35 µM (inactive)
same,GI50,[34],3.25 µM (inactive)
same,GI50,[35],4.13 µM (inactive)
same,GI50,[36],6.07 µM (inactive)
same,GI50,[37],7.38 µM (inactive)
same,GI50,[38],10.1 µM (inactive)
same,GI50,[39],6.38 µM (inactive)
same,GI50,[40],13.2 µM (inactive)
same,GI50,[41],7.59 µM (inactive)
same,GI50,[42],10.1 µM (inactive)
same,GI50,[43],9.1 µM (inactive)
same,GI50,[44],5.69 µM (inactive)
same,GI50,[45],4.15 µM (inactive)
same,GI50,[46],10.8 µM (inactive)
same,GI50,[59],1.51 µM (inactive)
same,GI50,[47],> 33 µM (inactive)
same,GI50,[48],4.8 µM (inactive)
same,GI50,[49],6.11 µM (inactive)
same,GI50,[50],0.908 µM (active)
same,GI50,[51],14.6 µM (inactive)
same,GI50,[52],2.74 µM (inactive)
same,GI50,[53],7.21 µM (inactive)
same,GI50,[54],6.32 µM (inactive)
same,GI50,[55],8.39 µM (inactive)
same,GI50,[56],> 35.6 µM (inactive)
same,GI50,[57],4.35 µM (inactive)
same,GI50,[58],12.1 µM (inactive)
